Results reported in patent publication US20260365646A1, “AKT1 MODULATORS” (Alterome Therapeutics, Inc., priority 2022, published 2026).
Where two headings read alike, the source gives them in different places.

Target: T1, full length AKT E17K (Homo sapiens, UniProt P31749, E17K)
T1 construct: host or cells: HEK-293 (ATCC CRL-1573)
Assay: NanoBRET Target Engagement (TE) Intracellular Kinase Assay
Type: cell-based
Method in brief: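 Live-cell BRET assay: cells expressing NanoLuc-fused full-length AKT E17K incubated 2 h with tracer at target-optimized concentration plus compound. BRET read at 450 nm donor/600 nm acceptor with extracellular NanoLuc inhibitor. EC50 from sigmoidal variable-slope fit of tracer displacement.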

[1] = read-out: NanoBRET AKT1E17K EC50, HEK-293 cells transfected with NanoLuc-AKT E17K, competitive displacement of NanoBRET tracer, 2 hr equilibration, 10-point 3-fold dilution

T1 sequence (P31749 whole entry E17K): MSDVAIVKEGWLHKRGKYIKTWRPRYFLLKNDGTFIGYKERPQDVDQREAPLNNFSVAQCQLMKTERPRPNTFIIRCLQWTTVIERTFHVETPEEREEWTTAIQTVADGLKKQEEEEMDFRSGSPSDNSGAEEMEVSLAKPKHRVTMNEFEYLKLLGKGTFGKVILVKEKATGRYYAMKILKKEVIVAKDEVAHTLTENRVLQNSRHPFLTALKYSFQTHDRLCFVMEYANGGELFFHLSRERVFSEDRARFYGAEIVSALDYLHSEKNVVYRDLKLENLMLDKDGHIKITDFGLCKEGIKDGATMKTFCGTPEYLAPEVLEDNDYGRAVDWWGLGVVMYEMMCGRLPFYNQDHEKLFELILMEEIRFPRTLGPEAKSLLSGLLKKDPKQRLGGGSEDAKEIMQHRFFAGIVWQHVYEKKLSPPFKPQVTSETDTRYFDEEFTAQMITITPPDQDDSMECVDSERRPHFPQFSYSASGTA

CCOc1c(N2CC3(CN(Cc4ccc(-n5c(-c6cccnc6N)nc6ccc(-c7ccccc7)nc65)cc4)C3)C2)c(=O)c1=O [Example 40, 3-(6-(4-(2-(2-Aminopyridin-3-yl)-5-phenyl-3H-imidazo[4,5-b]pyridin-3-yl)benzyl)-2,6-diazaspiro[3.3]heptan-2-yl)-4-ethoxycyclobut-3-ene-1,2-dione]
EC50 [1]: < 15 nM

COc1c(N2CC3CCC2CN3Cc2ccc(-n3c(-c4cccnc4N)nc4ccc(-c5ccccc5)nc43)cc2)c(=O)c1=O (stereo not shown) [Example 63, 3-(5-(4-(2-(2-aminopyridin-3-yl)-5-phenyl-3H-imidazo[4,5-b]pyridin-3-yl)benzyl)-2,5-diazabicyclo[2.2.2]octan-2-yl)-4-methoxycyclobut-3-ene-1,2-dione]
EC50 [1]: < 15 nM

CSc1c(N2CCC3(CC2)CN(Cc2ccc(-n4c(-c5cccnc5N)nc5ccc(-c6ccccc6)nc54)cc2)C3)c(=O)c1=O [Example 64, 3-(2-(4-(2-(2-aminopyridin-3-yl)-5-phenyl-3H-imidazo[4,5-b]pyridin-3-yl)benzyl)-2,7-diazaspiro[3.5]nonan-7-yl)-4-(methylthio)cyclobut-3-ene-1,2-dione]
EC50 [1]: < 15 nM

COc1c(NCc2ccc(-n3c(-c4cccnc4N)nc4cccnc43)cc2)c(=O)c1=O [Example 2, 3-((4-(2-(2-Aminopyridin-3-yl)-3H-imidazo[4,5-b]pyridin-3-yl)benzyl)amino)-4-methoxycyclobut-3-ene-1,2-dione]
EC50: > 600 nM

Nc1ncccc1-c1nc2ccc(-c3ccccc3)nc2n1-c1ccc(CN2CCC(Nc3c(OC4CCCC4)c(=S)c3=S)CC2)cc1 [Example 16, 3-((1-(4-(2-(2-Aminopyridin-3-yl)-5-phenyl-3H-imidazo[4,5-b]pyridin-3-yl)benzyl)piperidin-4-yl)amino)-4-(cyclopentyloxy)cyclobut-3-ene-1,2-dithione]
EC50: 60 to 600 nM

CN(c1c(S)c(=O)c1=O)C1CCN(Cc2ccc(-n3c(-c4cccnc4N)nc4ccc(-c5ccccc5)nc43)cc2)CC1 [Example 46, 3-((1-(4-(2-(2-aminopyridin-3-yl)-5-phenyl-3H-imidazo[4,5-b]pyridin-3-yl)benzyl)piperidin-4-yl)(methyl)amino)-4-mercaptocyclobut-3-ene-1,2-dione]
EC50: > 600 nM

COc1c(N2[C@H](C)CN(Cc3ccc(-n4c(-c5cccnc5N)nc5ccc(-c6ccccc6)nc54)cc3)C[C@@H]2C)c(=O)c1=O [Example 68, 3-((2S,6R)-4-(4-(2-(2-aminopyridin-3-yl)-5-phenyl-3H-imidazo[4,5-b]pyridin-3-yl)benzyl)-2,6-dimethylpiperazin-1-yl)-4-methoxycyclobut-3-ene-1,2-dione]
EC50: 60 to 600 nM

COc1c(N2CCN(Cc3ccc(-n4c(-c5cccnc5N)nc5ccc(-c6ccccc6)nc54)cc3)C[C@@H]2C)c(=O)c1=O [Example 36, (S)-3-(4-(4-(2-(2-Aminopyridin-3-yl)-5-phenyl-3H-imidazo[4,5-b]pyridin-3-yl)benzyl)-2-methylpiperazin-1-yl)-4-methoxycyclobut-3-ene-1,2-dione]
EC50: 15 to 60 nM

CNc1c(NC2CCN(Cc3ccc(-n4c(-c5cccnc5N)nc5ccc(-c6ccccc6)nc54)cc3)CC2)c(=O)c1=O [Example 20, 3-((1-(4-(2-(2-Aminopyridin-3-yl)-5-phenyl-3H-imidazo[4,5-b]pyridin-3-yl)benzyl)piperidin-4-yl)amino)-4-(methylamino)cyclobut-3-ene-1,2-dione]
EC50: 60 to 600 nM

Nc1ncccc1-c1nc2ccc(-c3ccccc3)nc2n1-c1ccc(CN2CCN(c3c(O)c(=O)c3=O)CC2)cc1 [Example 22, 3-(4-(4-(2-(2-Aminopyridin-3-yl)-5-phenyl-3H-imidazo[4,5-b]pyridin-3-yl)benzyl)piperazin-1-yl)-4-hydroxycyclobut-3-ene-1,2-dione]
EC50: > 600 nM

COc1c(N2CCC3(CCN(Cc4ccc(-n5c(-c6cccnc6N)nc6ccc(-c7ccccc7)nc65)cc4)C3)CC2)c(=O)c1=O [Example 57, 3-(2-(4-(2-(2-Aminopyridin-3-yl)-5-phenyl-3H-imidazo[4,5-b]pyridin-3-yl)benzyl)-2,8-diazaspiro[4.5]decan-8-yl)-4-methoxycyclobut-3-ene-1,2-dione]
EC50: 15 to 60 nM

CCSc1c(N(C2CC2)C2CCN(Cc3ccc(-n4c(-c5cccnc5N)nc5ccc(-c6ccccc6)nc54)cc3)CC2)c(=O)c1=O [Example 96, 3-((1-(4-(2-(2-aminopyridin-3-yl)-5-phenyl-3H-imidazo[4,5-b]pyridin-3-yl)benzyl)piperidin-4-yl)(cyclopropyl)amino)-4-(ethylthio)cyclobut-3-ene-1,2-dione]
EC50: 15 to 60 nM

COc1c(NC2CCCN(Cc3ccc(-n4c(-c5cccnc5N)nc5ccc(-c6ccccc6)nc54)cc3)CC2)c(=O)c1=O (stereo not shown) [Example 73, 3-((1-(4-(2-(2-aminopyridin-3-yl)-5-phenyl-3H-imidazo[4,5-b]pyridin-3-yl)benzyl)azepan-4-yl)amino)-4-methoxycyclobut-3-ene-1,2-dione]
EC50 [1]: < 15 nM

COc1c(N2CCCC3(CCN(Cc4ccc(-n5c(-c6cccnc6N)nc6ccc(-c7ccccc7)nc65)cc4)C3)C2)c(=O)c1=O (stereo not shown) [Example 58, 3-(2-(4-(2-(2-Aminopyridin-3-yl)-5-phenyl-3H-imidazo[4,5-b]pyridin-3-yl)benzyl)-2,7-diazaspiro[4.5]decan-7-yl)-4-methoxycyclobut-3-ene-1,2-dione]
EC50: 15 to 60 nM

CCSc1c(N(C)N2CCN(Cc3ccc(-n4c(-c5cccnc5N)nc5ccc(-c6ccccc6)nc54)cc3)CC2)c(=O)c1=O [Example 97, 3-((4-(4-(2-(2-aminopyridin-3-yl)-5-phenyl-3H-imidazo[4,5-b]pyridin-3-yl)benzyl)piperazin-1-yl)(methyl)amino)-4-(ethylthio)cyclobut-3-ene-1,2-dione]
EC50 [1]: < 15 nM

COc1c(N[C@H]2CCN(Cc3ccc(-n4c(-c5cccnc5N)nc5ccc(-c6ccccc6)nc54)cc3)C2)c(=O)c1=O [Example 30, (S)-3-((1-(4-(2-(2-Aminopyridin-3-yl)-5-phenyl-3H-imidazo[4,5-b]pyridin-3-yl)benzyl)pyrrolidin-3-yl)amino)-4-methoxycyclobut-3-ene-1,2-dione]
EC50 [1]: < 15 nM
